Patent US10196391B2 (Hoffmann-La Roche Inc., priority 2014, dated 2019)

System: HBsAg
Experiment: HBsAg assay (CLIA) in HepG2.2.15 cells
Type: cell-based, HBV
Conditions: Hepatitis B virus, HepG2.2.15, read-out: IC50 (HBsAg assay)
Method: HepG2.2.15 cells (Acs et al. Proc Natl Acad Sci USA, 84, (1987), 4641-4), a constitutively HBV-expressing cell line were cultured in DMEM+Glutamax-I medium (Invitrogen, Carlsbad, Calif., USA), supplemented with 10% fetal bovine serum (Invitrogen) and G418 (Invitrogen) at a final concentration of 200 mg/L and maintained in 5% CO2 at 37° C.
HepG2.2.15 cells were seeded in duplicate into white, 96-well plates at 1.5×10^4 cells/well. The cells were treated with a three-fold serial dilution series of the compounds in DMSO. The final DMSO concentration in all wells was 1% and DMSO was used as no drug control.
The HBsAg chemiluminescence immunoassay (CLIA) kit (Autobio Diagnostics Co., Zhengzhou, China, Catalog number: CL0310-2) was used to measure the levels of secreted HBV antigens semi-quantitatively. For the detection 50 μL/well culture supernatant was used and HBsAg was quantified using HBsAg chemiluminescence immunoassay (CLIA) kit (Autobio Diagnostics Co., Zhengzhou, China, Catalog number: CL0310-2), 50 μL of the supernatant was transferred to the CLIA assay plate and 50 μL of enzyme conjugate reagent was added into each well. The plates were sealed and gently agitated for 1 hour at room temperature. The supernatant-enzyme-mixture was discarded and wells were washed 6 times with 300 μL of PBS. The residual liquid was removed by plating the CLIA plate […] on absorbent tissue paper. 25 μL of substrates A and B were added to each well. Luminance was measured using a luminometer (Mithras LB 940 Multimode Microplate Reader) after 10 minutes incubation. Dose-response curves were generated and the IC50 value was extrapolated by using the E-WorkBook Suite (ID Business Solutions Ltd., Guildford, UK). The IC50 was defined as the compound concentration (or conditioned media log dilution) at which HBsAg secretion was reduced by 50% compared to the no drug control.
The compounds according to formula I were tested for their capacity to inhibit HBsAg as described herein.

Compared with Fc1ccc(N2CCc3nc(-c4ccccn4)ncc3C2)c(OCc2ccccc2)c1 [Example 38, 6-(2-benzyloxy-4-fluoro-phenyl)-2-(2-pyridyl)-7,8-dihydro-5H-pyrido[4,3-d]pyrimidine], Fc1cc(N2CCc3nc(-c4ccccn4)ncc3C2)ccc1OCc1ccccc1 [Example 53, 6-(4-benzyloxy-3-fluoro-phenyl)-2-(2-pyridyl)-7,8-dihydro-5H-pyrido[4,3-d]pyrimidine] is 11-fold lower in IC50: 17700 nM for the first, 1560 nM for the second. The second is the more potent here.

Compared with c1ccc(-c2ncc3c(n2)CCN(c2cccnc2)C3)nc1 [Example 39, 2-(2-pyridyl)-6-(3-pyridyl)-7,8-dihydro-5H-pyrido[4,3-d]pyrimidine], Clc1ccc(N2CCc3nc(-c4ccccn4)ncc3C2)cc1 [Example 45, 6-(4-chlorophenyl)-2-(2-pyridyl)-7,8-dihydro-5H-pyrido[4,3-d]pyrimidine] is 2.8-fold lower in IC50: 9120 nM for the first, 3230 nM for the second.

Going from Cc1cc(F)cc(N2CCc3nc(-c4ccccn4)ncc3C2)c1 [Example 40, 6-(3-fluoro-5-methyl-phenyl)-2-(2-pyridyl)-7,8-dihydro-5H-pyrido[4,3-d]pyrimidine] to Fc1ccc(N2CCc3nc(-c4ccccn4)ncc3C2)cc1Br [Example 51, 6-(3-bromo-4-fluoro-phenyl)-2-(2-pyridyl)-7,8-dihydro-5H-pyrido[4,3-d]pyrimidine], the IC50 rises from 669 nM to 5360 nM (8-fold). The first is the more potent here.

Fc1cc(Br)cc(N2CCc3nc(-c4ncccn4)ncc3C2)c1 [Example 41, 6-(3-bromo-5-fluoro-phenyl)-2-pyrimidin-2-yl-7,8-dihydro-5H-pyrido[4,3-d]pyrimidine] and Fc1cc(C2CC2)cc(N2CCc3nc(-c4ncccn4)ncc3C2)c1 [Example 42, 6-(3-cyclopropyl-5-fluoro-phenyl)-2-pyrimidin-2-yl-7,8-dihydro-5H-pyrido[4,3-d]pyrimidine] are within 1.5-fold of each other in IC50: 500 nM for the first, 566 nM for the second.

FC(F)(F)Oc1cccc(N2CCc3nc(-c4ncccn4)ncc3C2)c1 [Example 43, 2-pyrimidin-2-yl-6-[3-(trifluoromethoxy)phenyl]-7,8-dihydro-5H-pyrido[4,3-d]pyrimidine] and FC(F)Oc1cccc(N2CCc3nc(-c4ncccn4)ncc3C2)c1 [Example 63, 6-[3-(difluoromethoxy)phenyl]-2-pyrimidin-2-yl-7,8-dihydro-5H-pyrido[4,3-d]pyrimidine] are within 1.5-fold of each other in IC50: 1860 nM for the first, 1940 nM for the second.

First: COCCCOc1ccc(N2CCc3nc(-c4ccccn4)ncc3C2)cc1OC [Example 44, 6-[3-methoxy-4-(3-methoxypropoxy)phenyl]-2-(2-pyridyl)-7,8-dihydro-5H-pyrido[4,3-d]pyrimidine]
Second: COCCOc1ccc(N2CCc3nc(-c4ccccn4)ncc3C2)cc1OC [Example 57, 6-[3-methoxy-4-(2-methoxyethoxy)phenyl]-2-(2-pyridyl)-7,8-dihydro-5H-pyrido[4,3-d]pyrimidine]
The IC50 of the first is 8.7-fold higher: 18900 nM for the first, 2170 nM for the second.

Compared with c1ccc(COc2ccc(N3CCc4nc(-c5ccccn5)ncc4C3)cc2)cc1 [Example 46, 6-(4-benzyloxyphenyl)-2-(2-pyridyl)-7,8-dihydro-5H-pyrido[4,3-d]pyrimidine], Fc1cc(N2CCc3nc(-c4ccccn4)ncc3C2)cc(F)c1OCc1ccccc1 [Example 64, 6-(4-benzyloxy-3,5-difluoro-phenyl)-2-(2-pyridyl)-7,8-dihydro-5H-pyrido[4,3-d]pyrimidine] is 4.8-fold lower in IC50: 8790 nM for the first, 1820 nM for the second. The second is the more potent here.

Compared with Cc1ccc(N2CCc3nc(-c4ccccn4)ncc3C2)cc1 [Example 47, 6-(p-tolyl)-2-(2-pyridyl)-7,8-dihydro-5H-pyrido[4,3-d]pyrimidine], COc1ccc(N2CCc3nc(-c4ccccn4)ncc3C2)cc1 [Example 50, 6-(4-methoxyphenyl)-2-(2-pyridyl)-7,8-dihydro-5H-pyrido[4,3-d]pyrimidine] is 1.9-fold higher in IC50: 11400 nM for the first, 21900 nM for the second. The first is the more potent here.

First: CC1CN(c2ccc([N+](=O)[O-])cc2)Cc2cnc(-c3ccccn3)nc21 (centres unmarked) [Example 48, 8-methyl-6-(4-nitrophenyl)-2-(2-pyridyl)-7,8-dihydro-5H-pyrido[4,3-d]pyrimidine]
Second: COc1cc(N2CCc3nc(-c4ccccn4)ncc3C2)ccc1C#N [Example 60, 2-methoxy-4-[2-(2-pyridyl)-7,8-dihydro-5H-pyrido[4,3-d]pyrimidin-6-yl]benzonitrile]
The IC50 of the first is 3.7-fold higher: 1380 nM for the first, 371 nM for the second.

Clc1ccc(N2CCc3nc(-c4ccccn4)ncc3C2)cc1Cl [Example 49, 6-(3,4-dichlorophenyl)-2-(2-pyridyl)-7,8-dihydro-5H-pyrido[4,3-d]pyrimidine] and COc1cc(N2CCc3nc(-c4ccccn4)ncc3C2)ccc1Cl [Example 62, 6-(4-chloro-3-methoxy-phenyl)-2-(2-pyridyl)-7,8-dihydro-5H-pyrido[4,3-d]pyrimidine] are within 1.5-fold of each other in IC50: 1070 nM for the first, 1340 nM for the second.

Compared with Fc1cc(N2CCc3nc(-c4ccccn4)ncc3C2)ccc1Br [Example 52, 6-(4-bromo-3-fluoro-phenyl)-2-(2-pyridyl)-7,8-dihydro-5H-pyrido[4,3-d]pyrimidine], CCOc1ccc(N2CCc3nc(-c4ccccn4)ncc3C2)cc1F [Example 54, 6-(4-ethoxy-3-fluoro-phenyl)-2-(2-pyridyl)-7,8-dihydro-5H-pyrido[4,3-d]pyrimidine] is 2-fold higher in IC50: 1970 nM for the first, 3910 nM for the second. The first is the more potent here.

Compared with CCCOc1ccc(N2CCc3nc(-c4ccccn4)ncc3C2)cc1F [Example 55, 6-(3-fluoro-4-propoxy-phenyl)-2-(2-pyridyl)-7,8-dihydro-5H-pyrido[4,3-d]pyrimidine], COCCCOc1ccc(N2CCc3nc(-c4ccccn4)ncc3C2)cc1F [Example 56, 6-[3-fluoro-4-(3-methoxypropoxy)phenyl]-2-(2-pyridyl)-7,8-dihydro-5H-pyrido[4,3-d]pyrimidine] is 1.6-fold higher in IC50: 1180 nM for the first, 1840 nM for the second. The first is the more potent here.

First: COCCOc1cc(N2CCc3nc(-c4ccccn4)ncc3C2)ccc1OC [Example 58, 6-[4-methoxy-3-(2-methoxyethoxy)phenyl]-2-(2-pyridyl)-7,8-dihydro-5H-pyrido[4,3-d]pyrimidine]
Second: COc1ccc(N2CCc3nc(-c4ccccn4)ncc3C2)cc1OC [Example 59, 6-(3,4-dimethoxyphenyl)-2-(2-pyridyl)-7,8-dihydro-5H-pyrido[4,3-d]pyrimidine]
The IC50 of the first is 2.2-fold higher: 20200 nM for the first, 9060 nM for the second.

Going from COc1ccc(N2CCc3nc(-c4ccccn4)ncc3C2)c(F)c1F [Example 61, 6-(2,3-difluoro-4-methoxy-phenyl)-2-(2-pyridyl)-7,8-dihydro-5H-pyrido[4,3-d]pyrimidine] to COc1ccnc(N2CCc3nc(-c4ccccn4)ncc3C2)c1F [Example 70, 6-(3-fluoro-4-methoxy-2-pyridyl)-2-(2-pyridyl)-7,8-dihydro-5H-pyrido[4,3-d]pyrimidine], the IC50 falls from 3030 nM to 1550 nM (2-fold).

COc1cc(N2CCc3nc(-c4ccccn4)ncc3C2)ccc1C(=O)O [Example 65, 2-methoxy-4-[2-(2-pyridyl)-7,8-dihydro-5H-pyrido[4,3-d]pyrimidin-6-yl]benzoic acid] and CCOc1cc(N2CCc3nc(-c4ccccn4)ncc3C2)ccc1C(=O)O [Example 66, 2-ethoxy-4-[2-(2-pyridyl)-7,8-dihydro-5H-pyrido[4,3-d]pyrimidin-6-yl]benzoic acid] are within 1.5-fold of each other in IC50: 18400 nM for the first, 13200 nM for the second.

Going from CCCCOc1cc(N2CCc3nc(-c4ccccn4)ncc3C2)ccc1C(=O)O [Example 67, 2-butoxy-4-[2-(2-pyridyl)-7,8-dihydro-5H-pyrido[4,3-d]pyrimidin-6-yl]benzoic acid] to COc1cc(N2CCc3nc(-c4ccccn4)ncc3C2)ncc1F [Example 71, 6-(5-fluoro-4-methoxy-2-pyridyl)-2-(2-pyridyl)-7,8-dihydro-5H-pyrido[4,3-d]pyrimidine], the IC50 falls from 7800 nM to 330 nM (24-fold).

COc1nc(N2CCc3nc(-c4ccccn4)ncc3C2)ncc1Cl [Example 68, 6-(5-chloro-4-methoxy-pyrimidin-2-yl)-2-(2-pyridyl)-7,8-dihydro-5H-pyrido[4,3-d]pyrimidine] and COc1ncc(Cl)c(N2CCc3nc(-c4ccccn4)ncc3C2)n1 [Example 69, 6-(5-chloro-2-methoxy-pyrimidin-4-yl)-2-(2-pyridyl)-7,8-dihydro-5H-pyrido[4,3-d]pyrimidine] are within 1.5-fold of each other in IC50: 1470 nM for the first, 999 nM for the second.

COc1nc(N2CCc3nc(-c4ncccn4)ncc3C2)ccc1F [Example 72, 6-(5-fluoro-6-methoxy-2-pyridyl)-2-pyrimidin-2-yl-7,8-dihydro-5H-pyrido[4,3-d]pyrimidine] and COc1ccc2ccc(N3CCc4nc(-c5ncccn5)ncc4C3)cc2n1 [Example 75, 6-(2-methoxy-7-quinolyl)-2-pyrimidin-2-yl-7,8-dihydro-5H-pyrido[4,3-d]pyrimidine] are within 1.5-fold of each other in IC50: 1430 nM for the first, 2020 nM for the second.

COc1cc(OC)cc(N2CCc3nc(-c4ncccn4)ncc3C2)c1 [Example 73, 6-(3,5-dimethoxyphenyl)-2-pyrimidin-2-yl-7,8-dihydro-5H-pyrido[4,3-d]pyrimidine] and COc1cc(C#N)cc(N2CCc3nc(-c4ncccn4)ncc3C2)c1 [Example 76, 3-methoxy-5-(2-pyrimidin-2-yl-7,8-dihydro-5H-pyrido[4,3-d]pyrimidin-6-yl)benzonitrile] are within 1.5-fold of each other in IC50: 1960 nM for the first, 1510 nM for the second.
